Assay results: patent publication US20180071317A1, “USE OF AGENTS THAT ALTER THE PERITUMORAL ENVIRONMENT FOR THE TREATMENT OF CANCER” (SERVICIO ANDALUZ DE SALUD, priority 2011, published 2018)

Key:
[1] = system: fibroblasts (PHF) co-cultured with human melanoma tumor cells (MEL-HO1); test: Marker expression (IHC) in PHF co-cultured with MEL-HO1 tumor cells; type: cell-based; conditions: PHF co-cultured with MEL-HO1 + SP + NK1 antagonist;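 also: values are the percentage of fibroblasts positive for each marker, with cultures grown in fresh healthy-donor blood plasma and each experiment run six times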
Experimental: (§1) All cultures were maintained 48 hours, following which the same cells were included in paraffin blocks for subsequent analysis of the expression of different markers by immunohistochemistry (see Example 1). […] All experiments were carried out sixfold. Analyzed markers in fibroblast cells (stromal cells) were: TGF-α, TGF-β1, TGF-β2, TGF-β3, SPARC, MMP-3, MMP-7, MMP-9, MMP-11, MMP-13 and MMP-14.

[2] = system: fibroblasts (PHF) co-cultivated with tumor cell carcinoma of urinary bladder (5637); test: Marker expression (IHC) in PHF co-cultured with 5637 tumor cells; type: cell-based, human; conditions: co-culture with 5637; SP 1 μM + antagonist 1 μM; 48 h
Experimental: as §1

[3] = system: fibroblasts (PHF) co-cultured with tumor cells, thyroid carcinoma (reference A-427); test: Marker expression (IHC) in PHF co-cultured with thyroid carcinoma tumor cells; type: cell-based, human; conditions: co-culture with thyroid carcinoma cells; SP 1 μM + antagonist 1 μM; 48 h;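 also: grown in fresh plasma from a healthy human donor, read-out is percent of fibroblasts positive for each marker, compared with fibroblasts cultured alone, run in six replicates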
Experimental: as §1

[4] = system: fibroblasts (PHF) co-cultured with tumor cells, thyroid carcinoma; test: as above; type: cell-based, human; conditions: co-culture with thyroid carcinoma cells; SP 1 μM + antagonist 1 μM; 48 h
Experimental: as §1

[5] = system: fibroblasts (PHF) co-cultured with tumor cells of human endometrial carcinoma (AN3-CA); test: Marker expression (IHC) in PHF co-cultured with AN3-CA tumor cells; type: cell-based; conditions: co-culture with AN3-CA; SP 1 μM + antagonist 1 μM; 48 h;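 also: cultured in fresh healthy-donor blood plasma with added antibiotic-antimycotic, run in six replicates, values give percent of fibroblasts positive for each marker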
Experimental: as §1

[6] = system: fibroblasts (PHF) co-cultivated with tumor cell lymphoblastic leukemia B (SDI); test: Marker expression (IHC) in PHF co-cultured with SDI tumor cells; type: cell-based, human; conditions: PHF co-cultivated with SDI + SP + NK1 antagonist
Experimental: as §1

[7] = system: mononuclear cells; test: Marker expression (immunohistochemistry) in mononuclear blood cells with SP alone or with NK1 antagonists; type: cell-based, human; conditions: SP 1 μM + antagonist 1 μM; 48 h
Text: Briefly, heparinized blood from healthy donors was centrifuged so as to separate the various components thereof. Red blood cells remained at the bottom of the tube. Above them was a small white layer composed of the white blood cells and above, on top of the tube, the blood plasma. The layer of white cells was distributed in a culture plate of 24 wells by adding in each the same concentration of blood plasma from the same donor, supplemented with 1% antibiotic-antimycotic (Invitrogen). In each well, approximately 1000 cells (PHF) skin from the dermis were further added, obtained as previously described in Example 2. […] After 48 hours of incubation, cells were collected and embedded in paraffin for expression analysis by immunohistochemical techniques (as described in Example 1).
The expression of TGF molecular markers (anti-TGF 2, SAB4502956) and NF-kB (anti-NF-kB, SAB4501992) using specific antibodies against them were analyzed. All antibodies used were rabbit polyclonal antibodies obtained from Sigma Aldrich and were used at a concentration of 1/1000. All experiments were carried out sixfold.

[8] = system: fibroblasts (PHF) co-cultured with human choriocarcinoma tumor cells (AC-1M32); test: Marker expression (IHC) in PHF co-cultured with AC-1M32 tumor cells; type: cell-based; conditions: co-culture with AC-1M32; SP 1 μM + antagonist 1 μM; 48 h;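 also: Read-out is the percentage of PHF fibroblasts positive for each marker, with cells grown in fresh healthy-donor blood plasma, six replicates, reference being fibroblasts cultured alone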
Experimental: as §1

[9] = system: fibroblasts (PHF) co-cultured with human neuroblastoma tumor cells (KELLY); test: Marker expression (IHC) in PHF co-cultured with KELLY tumor cells; type: cell-based; conditions: PHF co-cultured with KELLY + SP + NK1 antagonist;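 also: Co-cultures grown on healthy-donor human blood plasma, run in six replicates, value is percentage of fibroblasts positive for each marker, compared with fibroblasts cultured alone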
Experimental: as §1

CC(=O)N1CCN([C@H]2CCN(C(=O)N(C)[C@H](C)c3cc(C(F)(F)F)cc(C(F)(F)F)c3)[C@@H](c3ccc(F)cc3C)C2)CC1 [Casopitant]
0%: cells expressing MMP-3 [1] | cells expressing MMP-7 [1] | cells expressing MMP-9 [1] | cells expressing MMP-11 [1] | cells expressing MMP-13 [1] | cells expressing MMP-14 [1] | cells expressing SPARC [1] | cells expressing TGF-α [1] | cells expressing TGF-β1 [1] | cells expressing TGF-β2 [1] | cells expressing TGF-β3 [1] | PHF cells expressing MMP-3 [2] | PHF cells expressing MMP-7 [2] | PHF cells expressing MMP-9 [2] | PHF cells expressing MMP-11 [2] | PHF cells expressing MMP-13 [2] | PHF cells expressing MMP-14 [2] | PHF cells expressing SPARC [2] | PHF cells expressing TGF-α [2] | PHF cells expressing TGF-β1 [2] | PHF cells expressing TGF-β2 [2] | PHF cells expressing TGF-β3 [2] | PHF cells expressing MMP-3 [3] | PHF cells expressing MMP-7 [3] | PHF cells expressing MMP-9 [3] | PHF cells expressing MMP-13 [3] | PHF cells expressing MMP-14 [3] | PHF cells expressing SPARC [3] | PHF cells expressing TGF-α [3] | PHF cells expressing TGF-β1 [3] | PHF cells expressing TGF-β2 [3] | PHF cells expressing TGF-β3 [3] | PHF cells expressing MMP-11 [4] | PHF cells expressing MMP-3 [5] | PHF cells expressing MMP-7 [5] | PHF cells expressing MMP-9 [5] | PHF cells expressing MMP-11 [5] | PHF cells expressing MMP-13 [5] | PHF cells expressing MMP-14 [5] | PHF cells expressing SPARC [5] | PHF cells expressing TGF-α [5] | PHF cells expressing TGF-β1 [5] | PHF cells expressing TGF-β2 [5] | PHF cells expressing TGF-β3 [5] | cells expressing MMP-3 [6] | cells expressing MMP-7 [6] | cells expressing MMP-9 [6] | cells expressing MMP-11 [6] | cells expressing MMP-13 [6] | cells expressing MMP-14 [6] | cells expressing SPARC [6] | cells expressing TGF-α [6] | cells expressing TGF-β1 [6] | cells expressing TGF-β2 [6] | cells expressing TGF-β3 [6] | mononuclear cells expressing NF-kB [7] | mononuclear cells expressing TGF-β [7] | PHF cells expressing MMP-3 [8] | PHF cells expressing MMP-7 [8] | PHF cells expressing MMP-9 [8] | PHF cells expressing MMP-11 [8] | PHF cells expressing MMP-13 [8] | PHF cells expressing MMP-14 [8] | PHF cells expressing SPARC [8] | PHF cells expressing TGF-α [8] | PHF cells expressing TGF-β1 [8] | PHF cells expressing TGF-β2 [8] | PHF cells expressing TGF-β3 [8] | cells expressing MMP-3 [9] | cells expressing MMP-7 [9] | cells expressing MMP-9 [9] | cells expressing MMP-11 [9] | cells expressing MMP-13 [9] | cells expressing MMP-14 [9] | cells expressing SPARC [9] | cells expressing TGF-α [9] | cells expressing TGF-β1 [9] | cells expressing TGF-β2 [9] | cells expressing TGF-β3 [9]

Cc1cc(F)ccc1[C@H]1CNCCN1C(=O)N(C)[C@H](C)c1cc(C(F)(F)F)cc(C(F)(F)F)c1 [Vestipitant]
0%: cells expressing MMP-3 [1] | cells expressing MMP-7 [1] | cells expressing MMP-9 [1] | cells expressing MMP-11 [1] | cells expressing MMP-13 [1] | cells expressing MMP-14 [1] | cells expressing SPARC [1] | cells expressing TGF-α [1] | cells expressing TGF-β1 [1] | cells expressing TGF-β2 [1] | cells expressing TGF-β3 [1] | PHF cells expressing MMP-3 [2] | PHF cells expressing MMP-7 [2] | PHF cells expressing MMP-9 [2] | PHF cells expressing MMP-11 [2] | PHF cells expressing MMP-13 [2] | PHF cells expressing MMP-14 [2] | PHF cells expressing SPARC [2] | PHF cells expressing TGF-α [2] | PHF cells expressing TGF-β1 [2] | PHF cells expressing TGF-β2 [2] | PHF cells expressing TGF-β3 [2] | PHF cells expressing MMP-3 [3] | PHF cells expressing MMP-7 [3] | PHF cells expressing MMP-9 [3] | PHF cells expressing MMP-13 [3] | PHF cells expressing MMP-14 [3] | PHF cells expressing SPARC [3] | PHF cells expressing TGF-α [3] | PHF cells expressing TGF-β1 [3] | PHF cells expressing TGF-β2 [3] | PHF cells expressing TGF-β3 [3] | PHF cells expressing MMP-11 [4] | PHF cells expressing MMP-3 [5] | PHF cells expressing MMP-7 [5] | PHF cells expressing MMP-9 [5] | PHF cells expressing MMP-11 [5] | PHF cells expressing MMP-13 [5] | PHF cells expressing MMP-14 [5] | PHF cells expressing SPARC [5] | PHF cells expressing TGF-α [5] | PHF cells expressing TGF-β1 [5] | PHF cells expressing TGF-β2 [5] | PHF cells expressing TGF-β3 [5] | cells expressing MMP-3 [6] | cells expressing MMP-7 [6] | cells expressing MMP-9 [6] | cells expressing MMP-11 [6] | cells expressing MMP-13 [6] | cells expressing MMP-14 [6] | cells expressing SPARC [6] | cells expressing TGF-α [6] | cells expressing TGF-β1 [6] | cells expressing TGF-β2 [6] | cells expressing TGF-β3 [6] | mononuclear cells expressing NF-kB [7] | mononuclear cells expressing TGF-β [7] | PHF cells expressing MMP-3 [8] | PHF cells expressing MMP-7 [8] | PHF cells expressing MMP-9 [8] | PHF cells expressing MMP-11 [8] | PHF cells expressing MMP-13 [8] | PHF cells expressing MMP-14 [8] | PHF cells expressing SPARC [8] | PHF cells expressing TGF-α [8] | PHF cells expressing TGF-β1 [8] | PHF cells expressing TGF-β2 [8] | PHF cells expressing TGF-β3 [8] | cells expressing MMP-3 [9] | cells expressing MMP-7 [9] | cells expressing MMP-9 [9] | cells expressing MMP-11 [9] | cells expressing MMP-13 [9] | cells expressing MMP-14 [9] | cells expressing SPARC [9] | cells expressing TGF-α [9] | cells expressing TGF-β1 [9] | cells expressing TGF-β2 [9] | cells expressing TGF-β3 [9]
